We go through 2 substances from publication PMC8962522, “Direct interaction of TrkA/CD44v3 is essential for NGF-promoted aggressiveness of breast cancer cells” (Journal of Experimental & Clinical Cancer Research : CR, 2022).

Data set [1] is described as follows: Body weight in xenografted SCID mice. It counts as in vivo. Particulars: 10 mice per group; injections near the tumor. How it is done:
MDA-MB-231 cells (2 × 10^6) were subcutaneously injected into the flanks of six-week-old female SCID mice. One month after injection, the mice were randomized into 2 groups and injected near the tumor with CD44v3 mimetic peptide 4 (P4) or not (control) five times in a 3-day interval. Tumor volume was determined throughout the experiment by measuring the length (l) and width (w) and was calculated as π/6 × l × w × […]. Animals were sacrificed using isoflurane anesthesia when the tumors reached a similar size, and the organs were immediately removed and stored in liquid nitrogen.
Fig. 6 CD44v3 mimetic peptide 4 blocks MDA-MB-231 tumor growth and metastasis. Schematic representation of the experimental setup for MDA-MB-231 tumor growth assessment in SCID mice (A). Body weight (B) and tumor volume (C) were measured following CD44v3 mimetic peptide administration (10 mice per group). Schematic representation of the experimental setup for MDA-MB-231 metastasis assessment in SCID mice (D). Percentage of metastasis-positive lungs, brains and livers (E) after scramble peptide or CD44v3 mimetic peptide 4 treatment (3 mice/group) or (F) after TrkA-H112 mutant treatment (6 mice) compared with HA-TrkA cells (5 mice). ** p < 0.01; ns, nonsignificant. […]

Data set [2] relates to TrkA/CD44v3 complex in COS-7 cells expressing TrkA and CD44v3. The experiment in a line: PLA TrkA/CD44v3 complex formation in COS-7 cells. It counts as cell-based, African green monkey (COS-7 cells). Conditions: COS-7 expressing TrkA and CD44v3; NGF 100 ng/ml, 0, 5 and 30 min; 30 fields per condition, three experiments. On the procedure:
Cells (10,000 cells per well) were grown on acid-washed eight-well glass slides (Thermo Scientific) in the appropriate medium supplemented with 10% FBS for 24 h. After NGF treatment, paraformaldehyde (PAF)-fixed cells were incubated with 4% bovine serum albumin (BSA) or 5% FBS (for 1 h at 20 °C), followed by overnight incubation with primary antibodies (rabbit anti-TrkA or rabbit anti-IgG + mouse anti-pan-CD44; mouse anti-CD44v3; mouse anti-CD44v6; mouse anti-IgG2a; mouse anti-IgG2b; or mouse anti-IgG1). PLA was performed following the manufacturer’s instructions in the assay kit (Duolink PLA; Sigma–Aldrich). To obtain the correct representation of the PLA signal for each condition, 30 fields per condition were observed using a fluorescence microscope (Eclipse TiU; Nikon, Japan). The PLA signals (red dots) were automatically quantified using ImageJ software (with an in-house-developed plug-in). After PLA, statistical analyses were performed using GraphPad Prism software to determine the mean dot intensity in the cells.
Fig. 1 The C-terminal region of CD44 variant 3 binds to TrkA. A Schematic representation of the CD44 gene and protein structure. Alternative splicing leads to the expression of CD44 variants, thus the insertion of exon 8 leads to the expression of a CD44 protein containing variant 3 (CD44v3) and the insertion of exon 11 leads to the expression of a CD44 containing variant 6 (CD44v6) (B) TrkA/CD44v3 complex formation in COS-7 cells expressing TrkA and CD44v3 was detected by the proximity ligation assay (PLA), which was performed 0, 5 and 30 min after the initiation of NGF (100 ng/ml) treatment. The images represent signals detected by PLA. Quantification of the red spots was performed by ImageJ software (30 randomly chosen fields per condition of three different experiments). Statistical analyses were performed using one-way ANOVA followed by Bonferroni’s posttest. Error bars represent the standard error of the mean (S.E.M.); *** p < 0.001. ns, nonsignificant. C NGF and/or TrkA binding to CD44v3 was measured by microscale thermophoresis (MST). MST experiments were performed on whole cell extracts of COS-7 cells expressing CD44v3. […]
Fig. 2 The C-terminal region of CD44v3 and the His112 residue of TrkA are involved in the CD44v3/TrkA interaction. TrkA/CD44v3 complex association was detected by the proximity ligation assay (PLA) in wild-type TrkA- or TrkA_H112A- and CD44v3-expressing COS-7 cells. […] Representative images of signals detected by PLA (A) and their quantification (B). […] TrkA/CD44v3 complex association was detected by PLA in wild-type TrkA and CD44v3 wild type or CD44v3 deleted mutant Δ3 or Δ4 expressing COS-7 (D, E). […] Quantification of PLA was performed using ImageJ software (30 fields per condition of three different experiments). […]

Entries after “also recorded” stand apart in the source; their conditions may differ.

On to “IDDDEDFISST [Peptide 4, mimetic peptide 4 (…) corresponding to the C-terminal region of CD44v3]”, for which the “body weight (in words)” value in data set [1] was “did not affect the overall body weight of the mice”. Besides, in data set [2], the “effect on TrkA/CD44v3 complex formation (PLA) in COS-7 cells” value was “could decrease NGF-induced TrkA/CD44v3 complex formation in COS-7 cells”.

In the case of “NGF: recombinant human β-NGF (Alomone Labs, Israel)”, the “effect on TrkA/CD44v3 complex formation (PLA) in COS-7 cells” value in data set [2] was “increased the PLA-detected TrkA/CD44v3 signal in the plasma membrane of COS-7 cells following NGF stimulation; also recorded: transient and decreased 30 min after NGF stimulation”.
